Laboratory results published in publication PMC10041525, “New Dual Inhibitors of Bacterial Topoisomerases with Broad-Spectrum Antibacterial Activity and In Vivo Efficacy against Vancomycin-Intermediate Staphylococcus aureus” (Journal of Medicinal Chemistry, 2023).
In brackets after ≈: the same amount, converted by molar mass. Like-named read-outs stand apart in the source and are kept apart here.

Key:
[1] = tested on: 100 A. baumannii strains (50 MDR, 50 non-MDR); experiment: MIC broth microdilution at IHMA Europe, panel of 100 strains; assay type: cell-based; details: for MIC / MIC50 / MIC90: Acinetobacter baumannii; for MIC50: read-out: MIC 50; for MIC90: read-out: MIC 90
E. coli ATCC 25922 = experiment: IHMA QC MIC; assay type: cell-based; details: Escherichia coli, ATCC25922; read-out: MIC (QC, repeated tests)

MIC ([1]; A. baumannii IHMA 2154584, Israel 2020, MDR, read-out: MIC): 2 µg/mL (≈ 3.41 µM)
MIC ([1]; A. baumannii IHMA 2155340, Kenya 2020, MDR, read-out: MIC): 4 µg/mL (≈ 6.83 µM)
MIC ([1]; A. baumannii IHMA 2156634, Turkey 2020, MDR, read-out: MIC): 4 µg/mL (≈ 6.83 µM)
MIC ([1]; A. baumannii IHMA 2156709, Turkey 2020, MDR, read-out: MIC): 4 µg/mL (≈ 6.83 µM)
MIC ([1]; A. baumannii IHMA 2157614, Australia 2020, Non-MDR, read-out: MIC): 0.25 µg/mL (≈ 0.427 µM)
MIC ([1]; A. baumannii IHMA 2177232, Lithuania 2020, MDR, read-out: MIC): 8 µg/mL (≈ 13.7 µM)
MIC ([1]; A. baumannii IHMA 2177489, Lithuania 2020, MDR, read-out: MIC): 4 µg/mL (≈ 6.83 µM)
MIC ([1]; A. baumannii IHMA 2178574, Ukraine 2020, Non-MDR, read-out: MIC): 0.25 µg/mL (≈ 0.427 µM)
MIC ([1]; A. baumannii IHMA 2180134, Malaysia 2020, Non-MDR, read-out: MIC): 0.25 µg/mL (≈ 0.427 µM)
MIC ([1]; A. baumannii IHMA 2180142, Malaysia 2020, MDR, read-out: MIC): 2 µg/mL (≈ 3.41 µM)
MIC ([1]; A. baumannii IHMA 2181370, Morocco 2020, MDR, read-out: MIC): 1 µg/mL (≈ 1.71 µM)
MIC ([1]; A. baumannii IHMA 2183729, Argentina 2020, MDR, read-out: MIC): 1 µg/mL (≈ 1.71 µM)
MIC ([1]; A. baumannii IHMA 2183849, Argentina 2020, Non-MDR, read-out: MIC): 0.25 µg/mL (≈ 0.427 µM)
MIC ([1]; A. baumannii IHMA 2184382, Japan 2020, Non-MDR, read-out: MIC): 0.12 µg/mL (≈ 0.205 µM)
MIC ([1]; A. baumannii IHMA 2193375, Venezuela 2020, MDR, read-out: MIC): 1 µg/mL (≈ 1.71 µM)
MIC ([1]; A. baumannii IHMA 2193485, Venezuela 2020, Non-MDR, read-out: MIC): 0.12 µg/mL (≈ 0.205 µM)
MIC ([1]; A. baumannii IHMA 2193607, Venezuela 2020, MDR, read-out: MIC): 0.5 µg/mL (≈ 0.854 µM)
MIC ([1]; A. baumannii IHMA 2195460, Italy 2020, MDR, read-out: MIC): 1 µg/mL (≈ 1.71 µM)
MIC ([1]; A. baumannii IHMA 2196914, South Africa 2020, MDR, read-out: MIC): 4 µg/mL (≈ 6.83 µM)
MIC ([1]; A. baumannii IHMA 2196959, South Africa 2020, MDR, read-out: MIC): 2 µg/mL (≈ 3.41 µM)
MIC ([1]; A. baumannii IHMA 2203763, Spain 2020, MDR, read-out: MIC): 2 µg/mL (≈ 3.41 µM)
MIC ([1]; A. baumannii IHMA 2205144, Korea, South 2020, MDR, read-out: MIC): 2 µg/mL (≈ 3.41 µM)
MIC ([1]; A. baumannii IHMA 2206459, Taiwan 2020, MDR, read-out: MIC): 2 µg/mL (≈ 3.41 µM)
MIC ([1]; A. baumannii IHMA 2206507, Taiwan 2020, Non-MDR, read-out: MIC): 0.12 µg/mL (≈ 0.205 µM)
MIC ([1]; A. baumannii IHMA 2212575, Hungary 2020, Non-MDR, read-out: MIC): 0.5 µg/mL (≈ 0.854 µM)
MIC ([1]; A. baumannii IHMA 2215307, Hong Kong 2020, Non-MDR, read-out: MIC): 0.25 µg/mL (≈ 0.427 µM)
MIC ([1]; A. baumannii IHMA 2216586, Taiwan 2020, MDR, read-out: MIC): 2 µg/mL (≈ 3.41 µM)
MIC ([1]; A. baumannii IHMA 2223200, Colombia 2020, Non-MDR, read-out: MIC): 0.25 µg/mL (≈ 0.427 µM)
MIC ([1]; A. baumannii IHMA 2224017, Panama 2020, MDR, read-out: MIC): 2 µg/mL (≈ 3.41 µM)
MIC ([1]; A. baumannii IHMA 2224303, Panama 2020, Non-MDR, read-out: MIC): 0.5 µg/mL (≈ 0.854 µM)
MIC ([1]; A. baumannii IHMA 2231797, Greece 2020, MDR, read-out: MIC): 4 µg/mL (≈ 6.83 µM)
MIC ([1]; A. baumannii IHMA 2233099, Guatemala 2020, MDR, read-out: MIC): 2 µg/mL (≈ 3.41 µM)
MIC ([1]; A. baumannii IHMA 2233430, Kazakhstan 2020, MDR, read-out: MIC): 4 µg/mL (≈ 6.83 µM)
MIC ([1]; A. baumannii IHMA 2233548, Kazakhstan 2020, Non-MDR, read-out: MIC): 0.12 µg/mL (≈ 0.205 µM)
MIC ([1]; A. baumannii IHMA 2238964, Thailand 2020, MDR, read-out: MIC): 1 µg/mL (≈ 1.71 µM)
MIC ([1]; A. baumannii IHMA 2239052, Thailand 2020, Non-MDR, read-out: MIC): 0.12 µg/mL (≈ 0.205 µM)
MIC ([1]; A. baumannii IHMA 2261047, Belgium 2020, MDR, read-out: MIC): 1 µg/mL (≈ 1.71 µM)
MIC ([1]; A. baumannii IHMA 2261633, Canada 2020, Non-MDR, read-out: MIC): 0.25 µg/mL (≈ 0.427 µM)
MIC ([1]; A. baumannii IHMA 2274234, South Africa 2020, MDR, read-out: MIC): 2 µg/mL (≈ 3.41 µM)
MIC ([1]; A. baumannii IHMA 2274364, South Africa 2020, MDR, read-out: MIC): 4 µg/mL (≈ 6.83 µM)
MIC ([1]; A. baumannii IHMA 2275237, Chile 2020, Non-MDR, read-out: MIC): 0.12 µg/mL (≈ 0.205 µM)
MIC ([1]; A. baumannii IHMA 2275751, Jordan 2020, MDR, read-out: MIC): 2 µg/mL (≈ 3.41 µM)
MIC ([1]; A. baumannii IHMA 2316205, United States 2020, MDR, read-out: MIC): 4 µg/mL (≈ 6.83 µM)
MIC ([1]; MDR n = 50, read-out: MAX (maximum MIC; all strains inhibited)): 8 µg/mL (≈ 13.7 µM)
MIC50 ([1]; MDR n = 50): 2 µg/mL (≈ 3.41 µM)
MIC90 ([1]; MDR n = 50): 4 µg/mL (≈ 6.83 µM)
MIC ([1]; MDR n = 50, read-out: MIN (minimum MIC)): 0.5 µg/mL (≈ 0.854 µM)
MIC ([1]; all isolates n = 100, read-out: MAX (maximum MIC; all strains inhibited)): 8 µg/mL (≈ 13.7 µM)
MIC50 ([1]; all isolates n = 100): 0.5 µg/mL (≈ 0.854 µM)
MIC90 ([1]; all isolates n = 100): 4 µg/mL (≈ 6.83 µM)
MIC ([1]; all isolates n = 100, read-out: MIN (minimum MIC)): 0.06 µg/mL (≈ 0.102 µM)
MIC ([1]; non-MDR n = 50, read-out: MAX (maximum MIC)): 4 µg/mL (≈ 6.83 µM)
MIC50 ([1]; non-MDR n = 50): 0.25 µg/mL (≈ 0.427 µM)
MIC90 ([1]; non-MDR n = 50): 0.5 µg/mL (≈ 0.854 µM)
MIC ([1]; non-MDR n = 50, read-out: MIN (minimum MIC)): 0.06 µg/mL (≈ 0.102 µM)
MAX (maximum MIC; all strains inhibited) ([1]; MDR n = 50): 8 µg/mL
MAX (maximum MIC; all strains inhibited) ([1]; all isolates n = 100): 8 µg/mL
MIC (E. coli ATCC 25922): 0.12 µg/mL (≈ 0.205 µM)
Structure (SMILES): CN(C)c1cc(NC(=O)CNC(C)(C)C)c(O)c2c1C[C@H]1C[C@H]3[C@H](N(C)C)C(O)=C(C(N)=O)C(=O)[C@@]3(O)C(O)=C1C2=O [Tigecycline, tigecycline]
